Data set [1] relates to Corynebacterium minutissiumum ATCC 23348. The experiment in a line: Antibacterial test, serial double dilution method (MIC). In kind it is cell-based. The following applies: Muller-Hilton agar, 37° C., 24 hours, concentration converted into hinokitiol. The text has this:
(§1) The clathrate compound of the present invention and non-clathrate compounds were each subjected to an antibacterial test. Aerobic and anaerobic bacteria used in the test are as follows:
Cm: Corynebacterium minutissiumum ATCC 23348
(§2) The samples used in the antibacterial test are as follows in which butylparabene was used as a control compound. The concentrations of clathrate compounds were all measured by converting into the concentrations of a hinokitiol. Samples of antibacterial agents
(§3) Method: Serial Double Dilution Method
(§4) As for the culture medium, an aqueous solution containing 38 g/l of a Muller-Hilton agar medium (manufactured by DEFCO) was used for aerobic bacteria and an aqueous solution containing 59 g/l of a GAM agar medium (manufactured by Nissui Pharmaceutical Co., Ltd.) for anaerobic bacteria. Each subject compound was added to each corresponding medium in a manner that the concentration of a hinokitiol was 400 μg/ml and diluted according to the serial double dilution method using the same medium. 10 ml of each resulting medium was poured into a plastic Schale with an inside diameter of 90 mm and was solidified. The solidified medium in the Schale was divided. 0.1 ml of a distilled water suspension containing the subject microorganisms (the number of microorganisms: 10^6-10^9/ml) was inoculated into each compartment and incubated at 37° C. for 24 hours. […]

Data set [2] deals with Corinebacterium xerosis JCM 1324. Described as above. Type of data set: cell-based. The following applies: Muller-Hilton agar, 37° C., 24 hours; concentration converted into hinokitiol.
Excerpt: as §1
Cx: Corinebacterium xerosis JCM 1324
as §2, §3, §4

Data set [3] relates to Malassezia furfur IFO 0656. The description is as above. Type of data set: cell-based. The following applies: Muller-Hilton agar, 37° C., 24 hours, concentration converted into hinokitiol.
Excerpt: as §1
Mf: Malassezia furfur IFO 0656
as §2, §3, §4

In data set [4] the test system is Staphylococcus aureus IAM 1011. The data set is described as above. Type of data set: cell-based. The following applies: Muller-Hilton agar, 37° C., 24 hours, concentration converted into hinokitiol.
Excerpt: as §1
Sa: Staphylococcus aureus IAM 1011
as §2, §3, §4

For data set [5], the system named is Escherichia coli IFO 3972. The description is as above. The following applies: Muller-Hilton agar, 37° C., 24 hours, concentration converted into hinokitiol. In kind it is cell-based.
Excerpt: as §1
Ec: Escherichia coli IFO 3972
as §2, §3, §4

In data set [6] the test system is Serratia marcessenes IFO 3736. The data set is described as above. Type of data set: cell-based. The following applies: Muller-Hilton agar, 37° C., 24 hours, concentration converted into hinokitiol.
Excerpt: as §1
Sm: Serratia marcessenes IFO 3736
as §2, §3, §4

Data set [7] concerns Proteus vulgaris IFO 3167. Described as above. In kind it is cell-based. The following applies: Muller-Hilton agar, 37° C., 24 hours, concentration converted into hinokitiol.
Excerpt: as §1
Pv: Proteus vulgaris IFO 3167
as §2, §3, §4

Data set [8] can be described thus: Solubility in water at 15° C. In kind it is physicochemical. As to the method: The solubilities of the above various branched CD clathrate compounds prepared in the above examples and reference example in water at 15° C. are shown in Table 1.
Data set [9] can be described thus: Evaluation of the heat stability (sublimation). In kind it is physicochemical. The following applies: 1000 mg allowed to stand at 90° C. for 20 hours. The source says:
The results of the residual weight, sublimation rate (%) and sublimation rate (%) converted into a hinokitiol were shown in Table 4.

Data set [10] deals with Staphylococcus epidermidis JCM 2414. Nature of the data set: Antibacterial test, serial double dilution method (MIC). The following applies: JCM2414, Muller-Hilton agar, 37° C., 24 hours, concentration converted into hinokitiol. Type of data set: cell-based.
Excerpt: as §1
Se: Staphylococcus epidermidis JCM 2414
as §2, §3, §4

≈ marks a conversion by molar mass, not a printed value.

The MIC is the lowest concentration that inhibits growth of the organism. Read a high MIC as a less susceptible organism.

With `CCCCOC(=O)c1ccc(O)cc1` [Butylparabene], in data set [1], the “MIC, Cm” value was found to be 100 µg/mL (≈ 515 µM). Besides, in data set [2], the “MIC, Cx” value was determined as 100 µg/mL (≈ 515 µM). For the same molecule, the “MIC, Mf” value in data set [3] came out at 100 µg/mL (≈ 515 µM). Moreover, the “MIC, Sa” value in data set [4] is 100 µg/mL (≈ 515 µM). The “MIC, Ec” value in data set [5] worked out at 400 µg/mL (≈ 2060 µM). Further, the “MIC, Sm” value in data set [6] is above 400 µg/mL. In addition, the “MIC, Pv” value in data set [7] turned out to be 100 µg/mL (≈ 515 µM).

`CC(C)c1cccc(=O)c(O)c1` [Hinokitiol] registered a Solubility in water in [8] below 0.05%. The Residual weight in [9] is 8 mg. Besides, the Sublimation rate in [9] is on record as 99.2%. Also, the MIC in [10] was determined as 50 µg/mL (≈ 304 µM); in [1] (Corynebacterium, ATCC23348), 50 µg/mL (≈ 304 µM); in [2], 50 µg/mL (≈ 304 µM); in [3] (Malassezia furfur, IFO0656), 50 µg/mL (≈ 304 µM); in data set [4] (Staphylococcus aureus, IAM1011), 50 µg/mL (≈ 304 µM); in [5] (Escherichia coli, IFO3972), 50 µg/mL (≈ 304 µM). Also, the MIC in [6] (Serratia, IFO3736) is 200 µg/mL (≈ 1220 µM); in data set [7] (Proteus vulgaris, IFO3167) it was 50 µg/mL (≈ 304 µM).

Consider `CC(C)c1cccc(=O)c([O-])c1.[Na+]` [sodium salt of hinokitiol], for which, in data set [9], the Residual weight is given as 764 mg and the Sublimation rate worked out at 23.6%.

For the origin of these results see US6355627B1, “Branched cyclodextrin clathrate compound of hinokitiols and composition containing the same” (Takasago International Corporation, priority 1999, dated 2002).
